In patent US7169816B2, “4-bromo or 4-iodo phenylamino benzhydroxamic acid derivatives and their use as MEK inhibitors” (Warner-Lambert Company, priority 1997, dated 2007) one finds IC50 data, which are given here for 28 molecules.

Where a name gives a salt, the structure may show the parent alone.

This assay concerns the target p45MEK (GST-MEK) (Homo sapiens, UniProt Q02750). Kind of assay: Cascade assay for inhibitors of the MAP kinase pathway (in vitro). The assay is classed as biochemical. As for the experimental part: Incorporation of ^32P into myelin basic protein (MBP) was assayed in the presence of a glutathione S-transferase fusion protein containing p44MAP kinase (GST-MAPK) and a glutathione S-transferase fusion protein containing p45MEK (GST-MEK). The assay solution contained 20 mM HEPES, pH 7.4, 10 mM MgCl2, 1 mM MnCl2, 1 mM EGTA, 50 μM [γ-^32P]ATP, 10 μg GST-MEK, 0.5 μg GST-MAPK and 40 μg MBP in a final volume of 100 μL. […] Compounds were assessed at 10 μM for ability to inhibit incorporation of ^32P.
To ascertain whether compounds were inhibiting GST-MEK or GST MAPK, two additional protocols were employed. In the first protocol, compounds were added to tubes containing GST-MEK, followed by addition of GST-MAPK, MBP and [γ-^32P]ATP. In the second protocol, compounds were added to tubes containing both GST-MEK and GST-MAPK, followed by MBP and [γ-^32P]ATP.

Chain of p45MEK (GST-MEK) (Q02750 whole entry, the tested form may be a part): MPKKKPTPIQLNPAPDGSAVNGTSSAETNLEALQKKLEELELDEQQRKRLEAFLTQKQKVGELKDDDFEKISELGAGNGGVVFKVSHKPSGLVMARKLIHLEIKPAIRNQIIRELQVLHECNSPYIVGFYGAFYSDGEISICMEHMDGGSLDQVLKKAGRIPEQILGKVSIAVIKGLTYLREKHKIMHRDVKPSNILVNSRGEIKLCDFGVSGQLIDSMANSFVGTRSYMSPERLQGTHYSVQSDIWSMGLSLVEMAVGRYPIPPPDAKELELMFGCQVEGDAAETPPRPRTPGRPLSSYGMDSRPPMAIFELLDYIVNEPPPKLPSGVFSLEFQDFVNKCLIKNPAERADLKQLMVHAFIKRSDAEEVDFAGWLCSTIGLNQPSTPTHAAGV

Molecule `C#CCCONC(=O)c1ccc(F)c(F)c1Nc1ccc(Br)cc1C` [Example 30, 2-(4-Bromo-2-methyl-phenylamino)-N-(but-3-ynyloxy)-3,4-difluoro-benzamide] yielded an IC50 of 971 nM. Turning to `C#CC(C)ONC(=O)c1ccc(F)c(F)c1Nc1ccc(Br)cc1C` (stereo not shown) [Example 28, 2-(4-Bromo-2-methyl-phenylamino)-3,4-difluoro-N-(1-methyl-prop-2-ynyloxy)-benzamide], the IC50 was 728 nM. For `Cc1cc(I)ccc1Nc1ccc(Cl)cc1C(=O)NO` [Example 4, 5-Chloro-N-hydroxy-2-(4-iodo-2-methyl-phenylamino)-benzamide], the IC50 is 23 nM. `C#CCCONC(=O)c1ccc(F)c(F)c1Nc1ccc(I)cc1C` [Example 29, N-(But-3-ynyloxy)-3,4-difluoro-2-(4-iodo-2-methyl-phenylamino)-benzamide]: the IC50 was found to be 76 nM. As for `CONC(=O)c1ccc(F)c(F)c1Nc1ccc(I)cc1C` [Example 14, 3,4-Difluoro-2-(4-iodo-2-methyl-phenylamino)-N-methoxy-benzamide], the IC50 is 61 nM. This IC50 and that of the molecule before are within 1.5-fold of each other. `CCCONC(=O)c1ccc(F)c(F)c1Nc1ccc(I)cc1C` [Example 43, 3,4-Difluoro-2-(4-iodo-2-methyl-phenylamino)-N-propoxy-benzamide] gave an IC50 of 40 nM. Molecule `Cc1cc(Br)ccc1Nc1c(C(=O)NOCc2cccs2)ccc(F)c1F` [Example 64, 2-(4-Bromo-2-methyl-phenylamino)-3,4-difluoro-N-(thiophen-2-ylmethoxy)-benzamide] registered an IC50 of 279 nM. Compared with the last molecule, the IC50 is about 7-fold higher. With `CONC(=O)c1ccc(F)cc1Nc1ccc(I)cc1C` [Example 13, 4-Fluoro-2-(4-iodo-2-methyl-phenylamino)-N-methoxy-benzamide], the IC50 is 243 nM. For `C=C(C)CONC(=O)c1ccc(F)c(F)c1Nc1ccc(I)cc1C` [Example 66, 3,4-Difluoro-2-(4-iodo-2-methyl-phenylamino)-N-(2-methyl-allyloxy)-benzamide] the value was 16 nM; for `Cc1cc(I)ccc1Nc1cc(F)ccc1C(=O)NOCc1cccs1` [Example 62, 4-Fluoro-2-(4-iodo-2-methyl-phenylamino)-N-(thiophen-2-ylmethoxy)-benzamide], 86 nM; for `Cc1ccccc1Nc1cc(F)ccc1C(=O)NO` [Example 9, 4-Fluoro-N-hydroxy-2-(2-methylphenylamino)-benzamide], 409 nM. `C=C(C)CONC(=O)c1ccc(F)cc1Nc1ccc(I)cc1C` [Example 65, 4-Fluoro-2-(4-iodo-2-methyl-phenylamino)-N-(2-methyl-allyloxy)-benzamide] came in with an IC50 of 57 nM. `Cc1cc(I)ccc1Nc1c(C(=O)NOCC#Cc2ccccc2)ccc(F)c1F` [Example 32, 3,4-Difluoro-2-(4-iodo-2-methyl-phenylamino)-N-(3-phenyl-prop-2-ynyloxy)-benzamide] showed an IC50 of 17 nM. Then `CCCONC(=O)c1ccc(F)cc1Nc1ccc(I)cc1C` [Example 42, 4-Fluoro-2-(4-iodo-2-methyl-phenylamino)-N-propoxy-benzamide], with 87 nM; and `Cc1cc(Br)ccc1Nc1c(C(=O)NOCC#Cc2ccccc2)ccc(F)c1F` [Example 33, 3,4-Difluoro-2-(4-bromo-2-methyl-phenylamino)-N-(3-phenyl-prop-2-ynyloxy)-benzamide], with 374 nM. For the molecule `C#CCCONC(=O)c1cc(Br)c(F)c(F)c1Nc1ccc(I)cc1C` [Example 31, 5-Bromo-N-(but-3-ynyloxy)-3,4-difluoro-2-(4-iodo-2-methyl-phenylamino)-benzamide], the IC50 was found to be 45 nM. Against the preceding molecule, the IC50 is about 8.3-fold lower. For `Cc1cc(I)ccc1Nc1c(C(=O)NOCC(C)N(C)C)cc(Br)c(F)c1F` (stereo not shown) [Example 92, 5-Bromo-N-(2-dimethylamino-propoxy)-3,4-difluoro-2-(4-iodo-2-methyl-phenylamino)-benzamide] the value was 33 nM; for `CN(C)CCONC(=O)c1cc(Br)c(F)c(F)c1Nc1ccc(I)cc1Cl` [Example 91, 5-Bromo-2-(2-chloro-4-iodo-phenylamino)-N-(2-dimethylamino-ethoxy)-3,4-difluoro-benzamide monohydrochloride salt], 20 nM. As to `Cc1cc(I)ccc1Nc1c(C(=O)NOCC#Cc2ccccc2F)cc(Br)c(F)c1F` [Example 37, 5-Bromo-3,4-difluoro-N-[3-(2-fluoro-phenyl)-prop-2-ynyloxy]-2-(4-iodo-2-methyl-phenylamino)-benzamide], 2 nM corresponded to half-maximal inhibition (IC50). The molecule `Cc1cc(F)ccc1Nc1cc(F)ccc1C(=O)NO` [Example 8, 4-Fluoro-N-hydroxy-2-(4-fluoro-2-methyl-phenylamino)-benzamide] registered an IC50 of 7130 nM. Then `CC=CCONC(=O)c1ccc(F)cc1Nc1ccc(I)cc1C` [Example 68, N-(But-2-enyloxy)-4-fluoro-2-(4-iodo-2-methyl-phenylamino)-benzamide], with 119 nM. `Cc1cc(I)ccc1Nc1cc(F)ccc1C(=O)NOCc1ccoc1` [Example 20, 4-Fluoro-N-(furan-3-ylmethoxy)-2-(4-iodo-2-methyl-phenylamino)-benzamide]: the IC50 amounted to 42 nM. The molecule `Cc1cc(I)ccc1Nc1c(C(=O)NOC2CCC2)ccc(F)c1F` [Example 50, N-Cyclobutyloxy-3,4-difluoro-2-(4-iodo-2-methyl-phenylamino)-benzamide] returned an IC50 of 43 nM.

For the molecule `Cc1cc(I)ccc1Nc1cc(F)ccc1C(=O)NOCc1ccccc1` [Example 12, 4-Fluoro-2-(4-iodo-2-methyl-phenylamino)-N-phenylmethoxy-benzamide], 826 nM corresponded to half-maximal inhibition (IC50). Compared with the last molecule, the IC50 is about 19-fold higher. As to `O=C(NOCC1CC1)c1cc(Br)c(F)c(F)c1Nc1ccc(I)cc1Cl` [Example 96, 5-Bromo-2-(2-chloro-4-iodo-phenylamino)-N-cyclopropylmethoxy-3,4-difluoro-benzamide], the IC50 is below 10 nM. As for `Cc1cc(I)ccc1Nc1cc(F)ccc1C(=O)NOCC1CC1` [Example 55, N-Cyclopropylmethoxy-4-fluoro-2-(4-iodo-2-methyl-phenylamino)-benzamide], the IC50 was found to be 47 nM. Then `CC=CCONC(=O)c1ccc(F)c(F)c1Nc1ccc(I)cc1C` [Example 74, N-(But-2-enyloxy)-3,4-difluoro-2-(4-iodo-2-methyl-phenylamino)-benzamide], with 35 nM; and `CCCONC(=O)c1cc(Br)c(F)c(F)c1Nc1ccc(I)cc1C` [Example 45, 5-Bromo-3,4-difluoro-2-(4-iodo-2-methyl-phenylamino)-N-propoxy-benzamide], with 126 nM.

As a reminder, the IC50 is the concentration at which inhibition is half-maximal. Read a low IC50 as higher potency.
